One series concerns rat. The note with it: cited from earlier work.
A further series has as its system GABAA receptor complex. The note with it: in vivo; cited from earlier work.
For another series, the system named is NAc DA. Nature of the series: Microdialysis: cocaine/heroin (speedball) induced increases in NAc DA. Format: in vivo, rats. As for the experimental part: In vivo microdialysis studies were performed using adult male Sprague-Dawley rats (Taconic Farms) as detailed previously (Morgan and Dewey, 1998). Cocaine, a dopamine reuptake inhibitor, (n=6-8) was administered (i.p.) at a dose of 20 mg/kg while heroin, an indirect dopamine releaser, (n=6-8) was administered (i.p.) at a dose of 0.5 mg/kg. In studies designed to investigate the synergistic effects of a cocaine/heroin combination (n=6-8), both drugs were administered at the identical dose used in the single drug studies. Alone cocaine produced a marked elevation in extracellular DA of approximately 380% above baseline values, 60 minutes following administration. DA returned to baseline within 120 minutes. In contrast, heroin increased NAc DA by only 70%, 60 minutes following administration, returning to baseline within 140 minutes. However, when combined, the two drugs produced an increase in NAc DA of approximately 1000%, 180 minutes following administration that had not returned to baseline values by 200 minutes after reaching peak values (FIG. 9).

Series [1] relates to extracellular DA levels in the NACC. The note with it: SCH 50911 alone; cited from earlier work.
The test system of series [2] is extracellular DA in the NACC. Nature of the series: Microdialysis: methamphetamine-induced increases in NACC DA. Format: in vivo, rats. From the text: (§1) All animals were used under an IACUC-approved protocol and with strict adherence to the NIH guidelines. Adult male Sprague-Dawley rats (200-300 g, Taconic Farms), housed in the animals care facility under 12:12 light/dark conditions, were placed into 6 groups (n=5-9), anesthetized and siliconized guide cannulae were stereotactically implanted into the right NACC (2.0 mm anterior and 1.0 mm lateral to bregms, and 7.0 mm ventral to the cortical surface) at least 4 days prior to study. Microdialysis probes (2.0 mm, Bioanalytical Systems, BAS, West Lafayette, Ind.) were positioned within the guide cannulae and artificial cerebrospinal fluid (ACSF, 155.0 mM NA^−, 1.1 mM Ca^2−, 2.9 mM K^−, 132.76 mM Cl^−, and 0.83 mM Mg^2−) was administered through the probe using a CMA/100 microinfusion pump (BAS) at a flow rate of 2.0 μl/min. Animals were placed in bowls, and probes were inserted and flushed with ACSF overnight. On the day of the study, a minimum of three samples were injected to determine baseline stability. Samples were collected for 20 min. and injected on-line (CMA/160, BAS). The average Dopamine concentration of these three stable samples was defined as control (100%), and all subsequent treatment values were transformed to a percentage of that control. […] The high performance liquid chromatography (HPLC) system consists of a BAS reverse-phase column (3.0 μC-18), a BAS LC-4C electrochemical transducer with a dual/glassy carbon electrode set at 650 mV, a computer that analyzes data on-line using a commercial software package (Chromograph Bioanalytical Systems), and a dual pen chart recorder. The mobile phase (flow rate 1.0 ml/min) consisted of 7.0% methanol, 50 mM sodium phosphate monobasic, 1.0 mM sodium octyl sulfate, and 0.1 mm […], pH 4.0. DA eluted at 7.5 min. Upon completion of the study, animals were decapitated and frozen sections were obtained for probe placement verification.
Methamphetamine at a dose of 1.25 mg/kg i.p. and 2.5 mg/kg i.p. was administered to the animals. It was noted that methamphetamine elevated extracellular DA concentrations in the NACC by approximately 2500% over basal levels, 100 minutes following administration of 2.5 mg/kg and approximately 1500% over basal levels following administration of 1.25 mg/kg (FIG. 6). DA returned to basal levels approximately 200 minutes following administration.

For the next series, the system named is cocaine abuser. The note with it: case report; cited from earlier work.
A further series has as its target T1, GABAB receptors (Rattus norvegicus, UniProt Q9Z0U4).
T1 construct: microinjection of baclofen (0.1-1 nmol) into the ventral tegmental area; host or cells: ventral tegmental area of living animals (endogenous receptor)
The note with it: 2-hydroxysaclofen; cited from earlier work.

Series [3] has as its system extracellular DA in the NACC. Kind of series: In vivo microdialysis: nicotine-induced increases in extracellular NACC DA. The arrangement: species or system rats.
Text: as §1, with “Microdialysis probes (2.0 mm, Bioanalytical Systems, BAS, West Lafayette, Ind.) were positioned within the guide cannulae and artificial cerebrospinal fluid (ACSF, 155.0 mM NA^−, 1.1 mM Ca^2−, 2.9 mM K^−, 132.76 mM Cl^−, and 0.83 mM Mg^2−) was administered through the probe using a CMA/100 microinfusion pump (BAS) at a flow rate of 2.0 μl/min.” left out, “DA eluted at 7.5 min.” left out
The open circles are control animals.
In all studies, animals were placed in the microdialysis bowls the night before the experiment and artificial cerebrospinal fluid (ACSF) was perfused through the microdialysis probes at a flow rate of 2.0 μl/min. At the end of each study, animals were sacrificed and their brains were removed and sectioned for probe placement verification.

The next series relates to serotonin (5-HT). Kind of series: Microdialysis Example 15: extracellular serotonin after nicotine. The class given is in vivo. Particulars: nicotine 0.4 mg/kg s.c., saline pretreated animals. As for the experimental part:
(§2) Briefly, two days prior to the microdialysis experiments, siliconized guide cannulae were implanted targeting the NAcc (A=+1.5 mm, L=−1.0 mm, V=−5.6 mm). […] Dialysate samples were assayed for monoamine content by microbore high-pressure liquid chromatography (HPLC) coupled with electrochemical detection. […] Peak effects were analyzed with a one-way ANOVA, and post-hoc Bonferroni t-test of topiramate pretreated groups compared to saline pretreated controls provided ANOVA significance at a critical value of 0.05.

The test system of the next series is norepinephrine (NE). Kind of series: Microdialysis Example 15: extracellular norepinephrine after nicotine. The class given is in vivo. Particulars: nicotine 0.4 mg/kg s.c., saline pretreated animals. As for the experimental part: as §2
Another series relates to Sprague-Dawley rats. Nature of the series: Gross locomotor activity during microdialysis (infrared motion sensor). Particulars: nicotine, regardless of the dose of GVG.
Series [4] concerns synaptic DA (11C-raclopride binding, striatum). Nature of the series: Primate PET: 11C-raclopride mean DV ratio, GVG and nicotine. Format: in vivo, baboons (Papio anubis).
Method: Adult female baboons (n=16) (Papio anubis, 13-18 kg) were used for all imaging studies and carbon-11 labeled raclopride (^11C-raclopride). […] Control animals (Group 1) received two injections of ^11C-raclopride without any drug intervention in order to determine the test/retest variability of the measurement. […] Arterial blood samples were obtained throughout the study and selected plasma samples were analyzed for the presence of unchanged ^11C-raclopride. Animals were not removed from the gantry between isotope injections.
Each primate (n=16) received two ^11C-raclopride injections. […] Test/retest primates (n=7, Group 1, Table XVI) received placebo (0.9% saline, 1 ml/kg) 30 mins prior to the second radiotracer injection in order to determine the test/retest variability of the method.
Series [5] relates to rats. Kind of series: Nicotine-induced conditioned place preference. The class given is in vivo. The text has this: A total of 8 rats were examined for each treatment pairing. Animals received 4 pairings over an 8 day period, one pairing per day. […] The protocol on days 1 and 2 was repeated 3 additional times.
The CPP apparatus was made entirely of plexiglass, except for the floor in one of the pairing chambers, which was made of a stainless steel plate with holes (0.5 mm in diameter) spaced 0.5 mm from edge to edge. The two pairing chambers differed in visual and tactile cues. One chamber was entirely light blue with the stainless steel floor and the second chamber was light blue with horizontal black stripes (2.5 cm wide) spaced 3.8 cm apart with a smooth plexiglass floor.
The conditioning procedure consisted of 20 sessions carried out consecutively over 20 days. The first three sessions were habituation sessions, during which the animals were handled for 5 minutes per day and exposed to the sights and sounds of the test room. […] The amount of time spent in each chamber was recorded using an automated infrared beam electronically coupled to a timer.
The animals were habituated as described above. […] Subsequently, the animals were then placed into the appropriate chamber for 30 minutes. This was repeated for 8 pairings over a 16 day period. On the test day, animals were placed in the CPP apparatus and allowed free access to the all of the CPP chambers and the amount of time spent in chamber was recorded.

Series [6] concerns extracellular DA levels in the NACC. Particulars: cited from earlier work.
Series [7] concerns mesolimbic extracellular dopamine (DA), NAcc. Nature of the series: Microdialysis Example 15: extracellular dopamine after nicotine. The class given is in vivo. Particulars: nicotine 0.4 mg/kg s.c., saline pretreated animals. As for the experimental part: as §2
For another series, the system named is male Wistar rats. Particulars: baclofen; cited from earlier work.
The subject of series [8] is rats. Particulars: microinjection of baclofen into the ventral tegmental area; cited from earlier work.
For series [9], the system named is rats. The note with it: baclofen 1.25-5 mg/kg i.p. acute pretreatment; for at least four hours; cited from earlier work.
Series [10] has as its system extracellular DA in the NACC. Nature of the series: Microdialysis: ethanol-induced increases in NACC DA. Format: in vivo, rats. Particulars: ethanol 1.0 g/kg i.p., approximately 125 minutes following administration.
Text: All animals were used under an IACUC-approved protocol and with strict adherence to the NIH guidelines. Adult male Sprague-Dawley rats (200-300 g, Taconic Farms), housed in the animals care facility under 12:12 light/dark conditions, were placed into 6 groups (n=5-9), anesthetized and siliconized guide cannulae were stereotactically implanted into the right NACC (2.0 mm anterior and 1.0 mm lateral to bregms, and 7.0 mm ventral to the cortical surface) at least 4 days prior to study. […] Animals were placed in bowls, and probes were inserted and flushed with ACSF overnight. On the day of the study, a minimum of three samples were injected to determine baseline stability. Samples were collected for 20 min. and injected on-line (CMA/160, BAS). The average Dopamine concentration of these three stable samples was defined as control (100%), and all subsequent treatment values were transformed to a percentage of that control. […] The high performance liquid chromatography (HPLC) system consists of a BAS reverse-phase column (3.0 μC-18), a BAS LC-4C electrochemical transducer with a dual/glassy carbon electrode set at 650 mV, a computer that analyzes data on-line using a commercial software package (Chromograph Bioanalytical Systems), and a dual pen chart recorder. The mobile phase (flow rate 1.0 ml/min) consisted of 7.0% methanol, 50 mM sodium phosphate monobasic, 1.0 mM sodium octyl sulfate, and 0.1 mm EDNA, pH 4.0. […] Upon completion of the study, animals were decapitated and frozen sections were obtained for probe placement verification.
Ethanol at a dose of 1.0 g/kg i.p. was administered to the animals.
[11] abbreviates: Nicotine 0.4 mg/kg s.c./Vehicle, 4 pairings (Table XII).
The mark [12] stands for this setting: acquisition, Saline/Nicotine 0.4 mg/kg s.c., 8 pairings (Table XV).
Where [13] appears, read: expression, Saline/Nicotine (0.4 mg/kg s.c.) 8 pairings, saline on test day.
Where [14] appears, read: expression, Saline/Nicotine (0.4 mg/kg s.c.) 8 pairings, saline on test day, listed as nicotine.

SMILES strings stand for the structures. Read-outs that look alike come from different tables or passages of the source.

T1 sequence (Q9Z0U4 17-960 limits assumed): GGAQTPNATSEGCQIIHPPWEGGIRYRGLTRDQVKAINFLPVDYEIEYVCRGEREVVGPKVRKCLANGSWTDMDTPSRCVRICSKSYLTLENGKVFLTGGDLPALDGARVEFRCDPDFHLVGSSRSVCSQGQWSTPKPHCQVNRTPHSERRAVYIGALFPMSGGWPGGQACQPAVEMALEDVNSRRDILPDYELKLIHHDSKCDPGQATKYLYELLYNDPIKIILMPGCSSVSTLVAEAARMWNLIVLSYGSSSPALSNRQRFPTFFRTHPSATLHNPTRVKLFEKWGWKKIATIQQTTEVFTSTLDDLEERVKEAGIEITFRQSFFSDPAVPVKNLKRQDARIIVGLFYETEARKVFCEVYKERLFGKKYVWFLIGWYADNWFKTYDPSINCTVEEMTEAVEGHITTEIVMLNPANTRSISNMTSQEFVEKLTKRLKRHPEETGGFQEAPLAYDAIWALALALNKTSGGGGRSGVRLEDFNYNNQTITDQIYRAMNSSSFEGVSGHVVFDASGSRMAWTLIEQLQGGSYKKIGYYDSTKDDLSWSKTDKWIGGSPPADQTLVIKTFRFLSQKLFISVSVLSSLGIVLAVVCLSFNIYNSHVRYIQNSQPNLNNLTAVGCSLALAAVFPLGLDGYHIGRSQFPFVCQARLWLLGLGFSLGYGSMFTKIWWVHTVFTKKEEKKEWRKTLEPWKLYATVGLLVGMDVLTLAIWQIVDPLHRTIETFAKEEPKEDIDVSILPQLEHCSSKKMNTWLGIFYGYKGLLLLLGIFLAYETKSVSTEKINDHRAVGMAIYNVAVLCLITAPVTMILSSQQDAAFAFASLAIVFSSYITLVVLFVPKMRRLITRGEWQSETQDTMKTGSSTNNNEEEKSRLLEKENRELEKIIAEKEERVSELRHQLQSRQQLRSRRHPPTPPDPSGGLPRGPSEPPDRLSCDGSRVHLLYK
T1 sequence (O88871 41-940 partner): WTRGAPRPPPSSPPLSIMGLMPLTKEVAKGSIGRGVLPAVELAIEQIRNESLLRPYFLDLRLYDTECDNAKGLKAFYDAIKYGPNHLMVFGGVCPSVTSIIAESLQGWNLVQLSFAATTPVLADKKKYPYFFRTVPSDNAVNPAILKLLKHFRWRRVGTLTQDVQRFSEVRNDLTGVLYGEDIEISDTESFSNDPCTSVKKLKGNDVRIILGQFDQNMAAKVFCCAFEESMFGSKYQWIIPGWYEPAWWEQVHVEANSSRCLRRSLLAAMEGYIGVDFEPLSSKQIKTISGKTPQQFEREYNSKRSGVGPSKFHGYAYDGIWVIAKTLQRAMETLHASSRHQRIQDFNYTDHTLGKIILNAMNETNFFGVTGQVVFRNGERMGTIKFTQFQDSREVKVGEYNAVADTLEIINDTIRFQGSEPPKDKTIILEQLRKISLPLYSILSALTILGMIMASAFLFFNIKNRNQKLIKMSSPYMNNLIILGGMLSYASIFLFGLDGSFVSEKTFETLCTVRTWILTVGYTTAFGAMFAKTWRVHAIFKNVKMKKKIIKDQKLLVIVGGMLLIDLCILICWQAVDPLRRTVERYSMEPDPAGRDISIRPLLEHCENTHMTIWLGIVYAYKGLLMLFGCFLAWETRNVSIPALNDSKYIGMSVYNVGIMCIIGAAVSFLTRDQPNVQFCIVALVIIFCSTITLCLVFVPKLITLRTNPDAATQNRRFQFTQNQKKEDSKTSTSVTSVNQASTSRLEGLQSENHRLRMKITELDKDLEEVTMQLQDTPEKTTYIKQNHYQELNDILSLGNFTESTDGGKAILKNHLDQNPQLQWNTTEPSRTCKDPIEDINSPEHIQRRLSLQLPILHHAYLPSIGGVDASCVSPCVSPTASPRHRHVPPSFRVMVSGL
Text for Sprague-Dawley rats: In parallel to the quantitative estimates of dopamine concentration, the locomotor response of these animals to stimulant administration was simultaneously quantified using an infrared motion sensor. This infrared optical proximity detector monitored movement of the gimbaled arm, an integral component of the freely moving system. The digital output of the detector was interfaced with an IBM personal computer and programmed to count both positive and negative arm deflections. […] Locomotor activity was then expressed as the number of deflections per sample interval.

Regarding `NC(=O)CCC/N=C(\c1ccc(Cl)cc1)c1cc(F)ccc1O` [progabide], in the series with rat (progabide alone), the “conditioned place preference or aversion, alone” value is “does not produce conditioned place preference or aversion”. Moreover, the “CPP response to […] i.p. of amphetamine” value in the series with rat (progabide pretreatment, present for 35 minutes) is listed as “did not alter the CPP response”.
Regarding `Cc1nnc2n1-c1ccc(Cl)cc1C(c1ccccc1)=NC2` [alprazolam], the “rate of cocaine self-administration” value with GABAA receptor complex is “decreased the rate of cocaine self-administration”.
As for `CC(=O)Oc1ccc2c3c1O[C@H]1[C@@H](OC(C)=O)C=C[C@H]4[C@@H](C2)N(C)CC[C@@]341` [heroin], in the series with NAc DA (cocaine 20 mg/kg i.p. or heroin 0.5 mg/kg i.p. alone), the “time for DA to return to baseline” value is at most 140 min. Moreover, in the series with NAc DA (heroin alone 0.5 mg/kg i.p., 60 minutes following administration), the “increase in NAc DA” value stood at 70%.
Consider `CC1(C)CO[C@@H](CC(=O)O)CN1` [SCH 50911], for which the “DA levels when given alone” value in series [1] was “does not significantly alter DA levels”.
Regarding `CN[C@@H](C)Cc1ccccc1` [methamphetamine], the “time for DA to return to basal levels” value in [2] (methamphetamine) is given as “approximately 200 minutes”. Besides, the “elevation of extracellular DA concentrations in the NACC over basal levels” value in [2] (methamphetamine 1.25 mg/kg i.p.) is reported as “approximately 1500%”.
As for `NCC1(CC(=O)O)CCCCC1` [gabapentin], the “cocaine withdrawal and craving” value in the series with cocaine abuser is “attenuated cocaine withdrawal and craving”.
`NCC(O)(CS(=O)(=O)O)c1ccc(Cl)cc1` (centres unmarked) [2-hydroxysaclofen]: the “effect of baclofen on morphine CPP” value at GABAB receptors is recorded as “antagonized”.
Consider `CN1CCC[C@H]1c1cccnc1` [Nicotine], for which the “increase of NACC DA levels (rank order)” value in [3] (nicotine) is listed as 90%. The “time for DA to return to basal levels” value in [3] (nicotine 0.4 mg/kg s.c., Group 1) is on record as “approximately 160 minutes”. Further, the “DA levels, % of basal levels” value in series [3] (nicotine 0.4 mg/kg s.c., Group 1 (naive)) was “approximately 200%”. Moreover, the “increase in extracellular DA concentrations in the NACC” value in [3] (nicotine 0.4 mg/kg s.c., Group 1 (naive), 80 minutes following administration) was “approximately 100%”. Besides, the 5-HT increase with serotonin (5-HT) was 116±11.2%. Also, the NE increase with norepinephrine (NE) turned out to be 176±26%. In the series with Sprague-Dawley rats, the gross locomotor activity entry was “increased gross locomotor activity”. Further, in series [4] (Group 3: nicotine alone), the “reduction of the mean DV ratio” value is given as 12%. The “% Change in Mean DV Ratio” value in series [4] (Group 3: nicotine alone 0.3 mg total, 30 minutes prior to second 11C-raclopride injection) was −12.3 ± 2.6%. Also, the “Time spent in chambers, Paired” value is reported as 9.4 ± 0.5 min in the series with rats [5] (setting [11]), 9.6 ± 0.6^1 min in the series on rats [5] (setting [12]), 9.6 ± 0.6 min in the series on rats [5] (setting [13]) and 9.6 ± 0.6 min in the series with rats [5] (setting [14]). Further, the “Time spent in chambers, Unpaired” value in the series on rats [5] (setting [11]) was 5.6 ± 0.5 min; in the series on rats [5] (setting [12]) it was 5.4 ± 0.6 min; in the series on rats [5] (setting [13]) it was 5.4 ± 0.6 min; in the series with rats [5] (setting [14]) it was 5.4 ± 0.6 min. Further, the “increase in extracellular DA levels in the NACC” value in series [6] (nicotine 0.6 mg/kg s.c.) is 220%; in [6] (nicotine 0.8 mg/kg s.c.), 179%. For the same compound, the DA increase in series [7] is 70±10.5%.
As to `NCC(CC(=O)O)c1ccc(Cl)cc1` (centres unmarked) [baclofen], in the series on male Wistar rats, the “break points for intravenous administration of cocaine” value is reported as “dose-dependent decrease” and the “rate of drug intake” value is listed as “did not affect the rate of drug intake”. For the same compound, in the series with rats [8], the “rate-current intensity curve of lateral hypothalamus stimulation” value is listed as “rightward shift of the rate-current intensity curve”. Further, in the series on rats [9], the self-administration of cocaine entry is “suppress self-administration of cocaine”.
Regarding `CCO` [Ethanol], the “elevation of extracellular DA concentrations in the NACC over basal levels” value in series [10] is recorded as “approximately 200%”.
